Laboratory results as given in US8658403B2, “Method for producing polyhydroxyalkanoic acid” (priority 2009, dated 2014).

Legend:
Type in all cases: cell-based, Pseudomonas fluorescens
BM07 wild-type = test: Aromatic PHA production, one-step cultivation on 50 mM fructose and 10 mM 5-PV or 6PC; conditions: 1 mM salicylic acid, 30° C.
Procedure: (§1) […] Salicylic acid was dissolved by adding sodium hydroxide and the pH of the solution was adjusted to 7.2 before adding to medium. Cell growth was determined by measuring dry cell weight (DCW). The remaining fructose was measured using DNS method and the remaining 11-POU or other carboxylic acids were determined by gas chromatography. The cells were isolated by centrifuging (10,000×g, 10 min), the cell suspension was washed with methanol and dried under vacuum at room temperature for 48 hours. The remaining NH4^+ was measured using Nessler's reagent. In the time-course profiling experiments, a set of culture flasks equal to the planned sampling times (every 4 or 6 h) was prepared and cultivated under the same culture condition. One of the flasks was withdrawn every scheduled time and the medium (50 ml) was centrifuged and analyzed.
(§2) The monomer composition of the PHA in cells was determined by analyzing the methyl esters, recovered from a sulfuric acid/methanol treatment of the cells, using a Hewlett-Packard HP5890 Series II gas chromatograph equipped with a HP-1 capillary column and a flame ionization detector. The gas chromatography (GC) run conditions were as follows: initial temperature of 80° C. for 2 min; heating rate of 8° C./min; final temperature of 250° C. for 6.75 min; carrier (He) flow rate of 3 ml/min; injector temperature of 230° C.; and detector temperature of 280° C. The standardization of each GC peak was made against the PHA of known structure characterized by quantitative NMR analyses

BM07-ΔphaZ [1] = test: as above; conditions: 1 mM salicylic acid, 30° C., culture time 72 h
Procedure: as §1, §2

[2] = test system: P. fluorescens BM07 wild-type; test: PHA production, one-step cultivation on 50 mM fructose and 5 mM 11-POU; conditions: 1 mM salicylic acid, 50 mM fructose + 5 mM 11-POU; for Dry cell weight / PHA (aliphatic monomer) / PHA (aromatic monomer) / Polyester content: 30° C.
Procedure: (§3) In the main cultures, 500 μl of the culture grown in NR or LB medium was transferred to 50 ml M1 mineral-salts medium containing 50 mM fructose, 5 mM 11-POU, 0 or 1 mM salicylic acid and 1.0 g/L ammonium sulfate in a 250 mL flask and cultivated at 30° C. Salicylic acid was dissolved by adding sodium hydroxide and the pH of the solution was adjusted to 7.2 before adding to medium. Cell growth was determined by measuring dry cell weight (DCW). The remaining fructose was measured using DNS method and the remaining 11-POU or other carboxylic acids were determined by gas chromatography. The cells were isolated by centrifuging (10,000×g, 10 min), the cell suspension was washed with methanol and dried under vacuum at room temperature for 48 hours. The remaining NH4^+ was measured using Nessler's reagent. In the time-course profiling experiments, a set of culture flasks equal to the planned sampling times (every 4 or 6 h) was prepared and cultivated under the same culture condition. One of the flasks was withdrawn every scheduled time and the medium (50 ml) was centrifuged and analyzed.
as §2

BM07-ΔphaZ [3] = test: as above; conditions: 1 mM salicylic acid, 50 mM fructose + 5 mM 11-POU; for Dry cell weight / PHA (aliphatic monomer) / PHA (aromatic monomer) / Polyester content: 30° C.
Procedure: as §3, §2

BM07 (pBBR-phaZ) = test: PHA production on 50 mM fructose/5 mM 11-POU in PhaZ over-expressed strain; conditions: 1 mM salicylic acid
Procedure: as §3, with “In the time-course profiling experiments, a set of culture flasks equal to the planned sampling times (every 4 or 6 h) was prepared and cultivated under the same culture condition.” left out
The monomer composition of the PHA in cells was determined by analyzing the methyl esters, recovered from a sulfuric acid/methanol treatment of the cells, using a Hewlett-Packard HP5890 Series II gas chromatograph equipped with a HP-1 capillary column and a flame ionization detector. […] The standardization of each GC peak was made against the PHA of known structure characterized by quantitative NMR analyses

[4] = 50 mM fructose + 10 mM 5PV, culture time 72 h
[5] = 50 mM fructose + 10 mM 6PC, culture time 60 h

SMILES: O=C(O)c1ccccc1O [Salicylic acid, salicylic acid]
- Aromatic PHA content (BM07 wild-type; [4]): 34.2 ± 1.5 wt. %
- Dry cell weight (BM07 wild-type; [4]): 1.98 ± 0.08 g/L
- Aromatic PHA content (BM07 wild-type; [5]): 32.8 ± 1.7 wt. %
- Dry cell weight (BM07 wild-type; [5]): 1.78 ± 0.13 g/L
- Aromatic PHA content (BM07-ΔphaZ [1]; 50 mM fructose + 10 mM 5PV): 49.9 ± 1.3 wt. %
- Dry cell weight (BM07-ΔphaZ [1]; 50 mM fructose + 10 mM 5PV): 2.10 ± 0.06 g/L
- Aromatic PHA content (BM07-ΔphaZ [1]; 50 mM fructose + 10 mM 6PC): 35.1 ± 1.2 wt. %
- Dry cell weight (BM07-ΔphaZ [1]; 50 mM fructose + 10 mM 6PC): 1.72 ± 0.08 g/L
- Incorporation of aliphatic monomer-units, share of the total PHA content [2]: ~10%
- Dry cell weight ([2]; culture time 48 h): 1.36 ± 0.10 g/L
- PHA (aliphatic monomer) ([2]; culture time 48 h): 3.1 ± 0.2 wt. %
- PHA (aromatic monomer) ([2]; culture time 48 h): 20.8 ± 0.9 wt. %
- Polyester content ([2]; culture time 48 h): 23.9 ± 1.1 wt. %
- Dry cell weight ([2]; culture time 72 h): 1.78 ± 0.06 g/L
- PHA (aliphatic monomer) ([2]; culture time 72 h): 2.5 ± 0.5 wt. %
- PHA (aromatic monomer) ([2]; culture time 72 h): 26.8 ± 1.6 wt. %
- Polyester content ([2]; culture time 72 h): 29.3 ± 2.1 wt. %
- Content of aliphatic MCL-monomer-units, share of the total PHA (BM07-ΔphaZ [3]): ~10%
- Effect on accumulation of aromatic PHA from 11-POU (BM07-ΔphaZ [3]): significantly retarded the accumulation of aromatic PHA from 11-POU
- Effect on cell growth (BM07-ΔphaZ [3]): did not significantly delay the cell growth
- Time of maximum PHA accumulation (BM07-ΔphaZ [3]): around 70 hours
- Time of maximum cell growth (BM07-ΔphaZ [3]): 50 to 60 h
- Dry cell weight (BM07-ΔphaZ [3]; culture time 72 h): 1.68 ± 0.11 g/L
- PHA (aliphatic monomer) (BM07-ΔphaZ [3]; culture time 72 h): 4.8 ± 0.3 wt. %
- PHA (aromatic monomer) (BM07-ΔphaZ [3]; culture time 72 h): 44.1 ± 1.6 wt. %
- Polyester content (BM07-ΔphaZ [3]; culture time 72 h): 48.9 ± 1.9 wt. %
- Dry cell weight (BM07-ΔphaZ [3]; culture time 96 h): 1.72 ± 0.09 g/L
- PHA (aliphatic monomer) (BM07-ΔphaZ [3]; culture time 96 h): 4.3 ± 0.4 wt. %
- PHA (aromatic monomer) (BM07-ΔphaZ [3]; culture time 96 h): 48.7 ± 1.4 wt. %
- Polyester content (BM07-ΔphaZ [3]; culture time 96 h): 53.0 ± 1.8 wt. %
- Incorporation of aliphatic monomer-units, share of the total PHA content at the maximum accumulation (BM07 (pBBR-phaZ)): < 4%
